This passage reports IC50 results from patent US20260226068A1, “IMIDAZOTRIAZINE IL-17A MODULATORS AND USES THEREOF” (DICE ALPHA, INC., priority 2023, published 2026).

One test concerns the target T1, IL-17A/F (Homo sapiens, UniProt Q16552+Q96PD4).
T1 construct: purchased R&D Systems
T1 sequence (Q16552 24-155): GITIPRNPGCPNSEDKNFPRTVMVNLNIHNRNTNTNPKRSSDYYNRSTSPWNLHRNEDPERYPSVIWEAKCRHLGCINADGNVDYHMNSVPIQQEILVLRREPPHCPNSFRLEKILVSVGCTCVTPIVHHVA
T1 sequence (Q96PD4 31-163): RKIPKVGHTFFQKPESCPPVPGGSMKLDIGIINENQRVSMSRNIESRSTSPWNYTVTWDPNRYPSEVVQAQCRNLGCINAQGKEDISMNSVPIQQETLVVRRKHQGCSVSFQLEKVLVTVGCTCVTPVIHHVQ
The test is described as follows: IL-17A/F HEK-Blue cell assay (SEAP reporter). The note with it: HEK-Blue IL-17A reporter cells, IL17A/F 5 ng/mL, 20 hours, SEAP read at A630; read-out: HEK-Blue IL17AF (IC50 for IL-17A/F inhibition). Format: cell-based.

For a further test, the target named is T2, IL-17A/A (Homo sapiens, UniProt Q16552).
T2 construct: purchased Genscript Z03228
T2 sequence (Q16552 24-155): T1 sequence (Q16552 24-155)
Briefly: IL-17A/A HEK-Blue cell assay (SEAP reporter). The test is classed as cell-based. As to conditions: HEK-Blue IL-17A reporter cells, IL17A/A 5 ng/mL, 20 hours, SEAP read at A630; read-out: HEK-Blue IL17AA (IC50 for IL-17A/A inhibition).

On to `CCn1nccc1C(=O)N[C@H](c1cn2nc(C[C@H]3C[C@@H](C(F)(F)F)CNC3=O)c(CN3CCC(F)CC3)nc2n1)C1CCC(F)(F)CC1` [Compound 371, N—((S)-(4,4-difluorocyclohexyl)(3-((4-fluoropiperidin-1-yl)methyl)-2-(((3R,5R)-2-oxo-5-(trifluoromethyl)piperidin-3-yl)methyl)imidazo[1,2-b][1,2,4]triazin-6-yl)methyl)-1-ethyl-1H-pyrazole-5-carboxamide], for which the IC50 is 0.1 to 1 µM at IL-17A/F and < 0.1 µM at IL-17A/A.

On to `O=C(N[C@H](c1cn2nc(C[C@H]3C[C@@H](C(F)(F)F)CNC3=O)c(C3CCOCC3)nc2n1)C1CCC(F)(F)CC1)c1nonc1OCC(F)(F)F` [Compound 372, N—((S)-(4,4-difluorocyclohexyl)(2-(((3R,5R)-2-oxo-5-(trifluoromethyl)piperidin-3-yl)methyl)-3-(tetrahydro-2H-pyran-4-yl)imidazo[1,2-b][1,2,4]triazin-6-yl)methyl)-4-(2,2,2-trifluoroethoxy)-1,2,5-oxadiazole-3-carboxamide], for which the IC50 at IL-17A/F is 0.1 to 1 µM; on IL-17A/A, < 0.1 µM.

Consider `O=C(N[C@H](c1cn2nc(C[C@H]3C[C@@H](C(F)(F)F)CNC3=O)c(C3CCOCC3)nc2n1)C1CCC(F)(F)CC1)c1nonc1CN1CC(F)C1` [Compound 373, N—((S)-(4,4-difluorocyclohexyl)(2-(((3R,5R)-2-oxo-5-(trifluoromethyl)piperidin-3-yl)methyl)-3-(tetrahydro-2H-pyran-4-yl)imidazo[1,2-b][1,2,4]triazin-6-yl)methyl)-4-((3-fluoroazetidin-1-yl)methyl)-1,2,5-oxadiazole-3-carboxamide], for which the results for the IC50 on IL-17A/F and at IL-17A/A were 0.1 to 1 µM and < 0.1 µM, respectively.

On to `CCn1nccc1C(=O)N[C@H](c1cn2nc(C[C@H]3C[C@@H](C(F)(F)F)CNC3=O)c(CN3CCOCC3)nc2n1)[C@H]1CC[C@H](C)CC1` [Compound 374, 1-ethyl-N—((S)-((1r,4S)-4-methylcyclohexyl)(3-(morpholinomethyl)-2-(((3R,5R)-2-oxo-5-(trifluoromethyl)piperidin-3-yl)methyl)imidazo[1,2-b][1,2,4]triazin-6-yl)methyl)-1H-pyrazole-5-carboxamide], for which the IC50 on IL-17A/F is 0.1 to 1 µM; on IL-17A/A, < 0.1 µM.

Turning to `CCn1nccc1C(=O)N[C@H](c1cn2nc(C[C@H]3C[C@@H](C(F)(F)F)CNC3=O)c(CN3CCC(F)(F)C3)nc2n1)[C@H]1CC[C@H](C)CC1` [Compound 375, N—((S)-(3-((3,3-difluoropyrrolidin-1-yl)methyl)-2-(((3R,5R)-2-oxo-5-(trifluoromethyl)piperidin-3-yl)methyl)imidazo[1,2-b][1,2,4]triazin-6-yl)((1r,4S)-4-methylcyclohexyl)methyl)-1-ethyl-1H-pyrazole-5-carboxamide], the IC50 on IL-17A/F was 0.1 to 1 µM; at IL-17A/A, < 0.1 µM.

Turning to `Cn1nccc1C(=O)N[C@H](c1cn2nc(C[C@H]3C[C@@H](C(F)(F)F)CNC3=O)c(CC3COC3)nc2n1)C1CCCCCC1` [Compound 377, N—((S)-cycloheptyl(3-(oxetan-3-ylmethyl)-2-(((3R,5R)-2-oxo-5-(trifluoromethyl)piperidin-3-yl)methyl)imidazo[1,2-b][1,2,4]triazin-6-yl)methyl)-1-methyl-1H-pyrazole-5-carboxamide], the IC50 on IL-17A/F was 0.1 to 1 µM; at IL-17A/A, < 0.1 µM.

Consider `O=C(N[C@H](c1cn2nc(C[C@H]3C[C@@H](C(F)(F)F)CNC3=O)c(C3CCOCC3)nc2n1)C1CCC(F)(F)CC1)c1ccnn1CCN1CCOCC1` [Compound 378, N—((S)-(4,4-difluorocyclohexyl)(2-(((3R,5R)-2-oxo-5-(trifluoromethyl)piperidin-3-yl)methyl)-3-(tetrahydro-2H-pyran-4-yl)imidazo[1,2-b][1,2,4]triazin-6-yl)methyl)-1-(2-morpholinoethyl)-1H-pyrazole-5-carboxamide], for which the IC50 on IL-17A/F is > 1 µM; on IL-17A/A, < 0.1 µM.

For `CCn1nccc1C(=O)N[C@H](c1cn2nc(C[C@H]3CCCNC3=O)c(C3CCOCC3)nc2n1)C1CCC(F)(F)CC1` [Compound 379], the IC50 was > 1 µM on IL-17A/F and < 0.1 µM at IL-17A/A.
